Test results: PubChem BioAssay AID2060338 (Molecular Pharmacology Branch, DTP, NCI, 2025)

Tested on: 556581-035-R-J1-PDC spheroids with HUVEC/MSC, viability
Experiment: Anticancer human tumor 556581-035-R-J1-PDC patient-derived ovarian carcinoma cell line growth inhibition [IpAb]
Details: for IC50: curve of first compound; for viability, T/C: stronger effect = lower value; active means viability on the fitted dose curve at most 10% of control; inactive means the rest
Source text: Combinatorial screen of targeted agents with ipatasertib and abemaciclib in multi-cell type tumor spheroids
A high-throughput screen of multi-cell type tumor spheroids was designed to identify active combinations of targeted small molecules and ipatasertib or abemaciclib. Complex spheroids include a stromal component modeled by human endothelial cells (HUVEC) and fibroblasts modeled by human mesenchymal stem cells (MSCs). The concentration ranges selected for each drug and investigational agent were based upon clinically achievable concentrations if the clinical Cmax of the agent was known.
Compounds. The drugs and investigational agents: ipatasertib (NSC767898), abemaciclib(NSC768073), selumetinib (NSC741078), trametinib (758246), adavosertib (NSC754352), everolimus (NSC733504), sapanisertib (NSC764658), vemurafenib (NSC761431), venetoclax (NSC766270), copanlisib (NSC809693), apelisib (NSC765974), palbociblib (NSC758247), vemurafenib (NSC761431), dabrafenib (NSC764134), ravoxertinib (NSC781343), BMS-387032 (NSC767048), sotorasib (NSC818433), talazoparib (NSC767125) and afursertib (NSC778305), were obtained from the National Cancer Institute (NCI) Developmental Therapeutics Program Chemical Repository. The FDA-approved anticancer drug set is available from the NCI Developmental Therapeutics Program. […] The stock solutions were prepared in dimethyl sulfoxide (DMSO, Sigma-Aldrich, St. Louis, MO, cat. D2650) at 800-fold the tested concentration and stored at -70 degrees C prior to their use. All drugs and investigational agents were tested over a range starting from a high concentration at or near the clinical Cmax and decreasing in half-log increments. If the clinical Cmax for an agent had not been determined, the highest concentration tested was 10 microM.
NCI60 Cell Culture. NCI60 cell lines were obtained from the NCI Developmental Therapeutics Program Tumor Repository. For each lot of cells, the Repository performed Applied Biosystems AmpFLSTR Identifiler testing with PCR amplification to confirm consistency with the published Identifier STR profile for each cell line. Cells were kept in continuous culture for no more than 20 passages. The optimal seeding densities for each of the cell lines at each time point assessed were determined prior to performing the concentration response studies. Briefly, the NCI60 human tumor lines were grown as monolayers in RPMI 1640 medium supplemented with 10% FBS and 2 mmol/L L-glutamine.
An additional 9 lines were from the NCI60 cell line panel including MDA-MB-231 breast carcinoma, MDA-MB-468 breast carcinoma, MCF7 breast carcinoma, Hs578T breast carcinoma, MALME-3M melanoma, SK-MEL-2 melanoma, SK-OV-3 ovarian carcinoma, DU-145 prostate carcinoma, PC-3 prostate carcinoma, all cell lines along with major genetic alterations are listed on Table 2. Pooled donor human umbilical vein endothelial cells (HUVEC, Lonza, cat. CC-2519) and human mesenchymal stem cells (hMSC, Lonza, cat. PT-2501) were purchased from Lonza (Walkersville, MD).
PDMR cell lines were grown in complete medium (DC medium): Dulbecco's modified Eagle's medium (DMEM)/F12 supplemented with 5% fetal bovine serum (FBS), 2 mM L-glutamine, 100 U/mL penicillin and 100 µg/ml streptomycin, 0.4 µg/ml hydrocortisone, 10 ng/ml epidermal growth factor (EGF) recombinant human protein, 24 µg/mL adenine, and 0.1 mg/mL primocin. During culture from frozen stock vials, PDMR cells were cultured in the same medium containing 10 µM Y-27632 (see Table 3). The PDCs were cultured in complete DMEM/F12 media without 10 microM Y-27632 dihydrochloride for at least two passages prior to the screen. The pooled donor HUVEC and hMSC were cultured in endothelial cell growth medium 2 (PromoCell, Heidelberg, Germany, cat. C-22011) and mesenchymal stem cell growth medium 2 (PromoCell, cat. C-28009), respectively. For all experiments, HUVEC and hMSC were used at passages </=5.
[…]

[1] = second compound 0.01 µM, first compound 0.00949 µM
[2] = second compound 0.01 µM, first compound 0.03 µM
[3] = second compound 0.01 µM, first compound 0.0949 µM
[4] = second compound 0.01 µM, first compound 0.3 µM
[5] = second compound 0.0316 µM, first compound 0.00949 µM
[6] = second compound 0.0316 µM, first compound 0.03 µM
[7] = second compound 0.0316 µM, first compound 0.0949 µM
[8] = second compound 0.0316 µM, first compound 0.3 µM
[9] = second compound 0.1 µM, first compound 0.00949 µM
[10] = second compound 0.1 µM, first compound 0.03 µM
[11] = second compound 0.1 µM, first compound 0.0949 µM
[12] = second compound 0.1 µM, first compound 0.3 µM
[13] = second compound 0.316 µM, first compound 0.00949 µM
[14] = second compound 0.316 µM, first compound 0.03 µM
[15] = second compound 0.316 µM, first compound 0.0949 µM
[16] = second compound 0.316 µM, first compound 0.3 µM
[17] = second compound 1 µM, first compound 0.00949 µM
[18] = second compound 1 µM, first compound 0.03 µM
[19] = second compound 1 µM, first compound 0.0949 µM
[20] = second compound 1 µM, first compound 0.3 µM
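Further: spheroids exposed to compounds for 7 days before readout.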

C=CC(=O)N1CCN(c2nc(=O)n(-c3c(C)ccnc3C(C)C)c3nc(-c4c(O)cccc4F)c(F)cc23)C(C)C1 (stereo not given) + CC(C)NCC(C(=O)N1CCN(c2ncnc3c2C(C)CC3O)CC1)c1ccc(Cl)cc1
4.02 µM: IC50 (second compound 1 µM)
5.38 µM: IC50 (second compound 0.1 µM)
< 0.0316 µM: IC50 (second compound 10 µM)
1.79 µM: IC50 (second compound 3.16 µM)
6.53 µM: IC50 (second compound 0.316 µM)
inactive: viability, T/C (second compound 0.1 µM, first compound 0.0316 µM) 99.9% | viability, T/C (second compound 0.1 µM, first compound 0.1 µM) 108% | viability, T/C (second compound 0.1 µM, first compound 0.316 µM) 103% | viability, T/C (second compound 0.1 µM, first compound 1 µM) 111% | viability, T/C (second compound 0.1 µM, first compound 3.16 µM) 68.6% | viability, T/C (second compound 0.1 µM, first compound 10 µM) 28.3% | viability, T/C (second compound 0.316 µM, first compound 0.0316 µM) 79.8% | viability, T/C (second compound 0.316 µM, first compound 0.1 µM) 79.1% | viability, T/C (second compound 0.316 µM, first compound 0.316 µM) 74% | viability, T/C (second compound 0.316 µM, first compound 1 µM) 85.1% | viability, T/C (second compound 0.316 µM, first compound 3.16 µM) 73.4% | viability, T/C (second compound 0.316 µM, first compound 10 µM) 35.4% | viability, T/C (second compound 1 µM, first compound 0.0316 µM) 74.3% | viability, T/C (second compound 1 µM, first compound 0.1 µM) 65.6% | viability, T/C (second compound 1 µM, first compound 0.316 µM) 59.8% | viability, T/C (second compound 1 µM, first compound 1 µM) 64% | viability, T/C (second compound 1 µM, first compound 3.16 µM) 57% | viability, T/C (second compound 1 µM, first compound 10 µM) 28.4% | viability, T/C (second compound 3.16 µM, first compound 0.0316 µM) 54.5% | viability, T/C (second compound 3.16 µM, first compound 0.1 µM) 54.5% | viability, T/C (second compound 3.16 µM, first compound 0.316 µM) 52.6% | viability, T/C (second compound 3.16 µM, first compound 1 µM) 47.9% | viability, T/C (second compound 3.16 µM, first compound 3.16 µM) 48.9% | viability, T/C (second compound 3.16 µM, first compound 10 µM) 21.8% | viability, T/C (second compound 10 µM, first compound 0.0316 µM) 44.6% | viability, T/C (second compound 10 µM, first compound 0.1 µM) 48.2% | viability, T/C (second compound 10 µM, first compound 0.316 µM) 45.5% | viability, T/C (second compound 10 µM, first compound 1 µM) 48.5% | viability, T/C (second compound 10 µM, first compound 3.16 µM) 34.9% | viability, T/C (second compound 10 µM, first compound 10 µM) 13.5%

CC(=O)c1c(C)c2cnc(Nc3ccc(N4CCNCC4)cn3)nc2n(C2CCCC2)c1=O + CCN1CCN(Cc2ccc(Nc3ncc(F)c(-c4cc(F)c5nc(C)n(C(C)C)c5c4)n3)nc2)CC1
inactive: viability, T/C (second compound 0.01 µM, first compound 0.000949 µM) 99.9% | viability, T/C (second compound 0.01 µM, first compound 0.003 µM) 106% | viability, T/C [1] 117% | viability, T/C [2] 100% | viability, T/C [3] 82.7% | viability, T/C [4] 88.3% | viability, T/C (second compound 0.0316 µM, first compound 0.000949 µM) 76.2% | viability, T/C (second compound 0.0316 µM, first compound 0.003 µM) 93.2% | viability, T/C [5] 101% | viability, T/C [6] 91.3% | viability, T/C [7] 92.2% | viability, T/C [8] 76.1% | viability, T/C (second compound 0.1 µM, first compound 0.000949 µM) 81.7% | viability, T/C (second compound 0.1 µM, first compound 0.003 µM) 84.4% | viability, T/C [9] 82% | viability, T/C [10] 87.3% | viability, T/C [11] 80.2% | viability, T/C [12] 89.1% | viability, T/C (second compound 0.316 µM, first compound 0.000949 µM) 89.5% | viability, T/C (second compound 0.316 µM, first compound 0.003 µM) 84.4% | viability, T/C [13] 94.6% | viability, T/C [14] 68.8% | viability, T/C [15] 81.3% | viability, T/C [16] 64% | viability, T/C (second compound 1 µM, first compound 0.000949 µM) 49.9% | viability, T/C (second compound 1 µM, first compound 0.003 µM) 57.8% | viability, T/C [17] 46.6% | viability, T/C [18] 55% | viability, T/C [19] 49.8% | viability, T/C [20] 54%
> 0.3 µM: IC50 (second compound 0.01 µM) | IC50 (second compound 0.0316 µM) | IC50 (second compound 0.1 µM) | IC50 (second compound 0.316 µM) | IC50 (second compound 1 µM)

Cn1cnc2c(F)c(Nc3ccc(Br)cc3Cl)c(C(=O)NOCCO)cc21 + CCN1CCN(Cc2ccc(Nc3ncc(F)c(-c4cc(F)c5nc(C)n(C(C)C)c5c4)n3)nc2)CC1
1.17 µM: IC50 (second compound 0.316 µM)
1.21 µM: IC50 (second compound 1 µM)
0.876 µM: IC50 (second compound 0.01 µM)
0.87 µM: IC50 (second compound 0.1 µM)
1.13 µM: IC50 (second compound 0.0316 µM)
inactive: viability, T/C [1] 118% | viability, T/C [2] 111% | viability, T/C [3] 108% | viability, T/C [4] 78.7% | viability, T/C (second compound 0.01 µM, first compound 0.949 µM) 49% | viability, T/C (second compound 0.01 µM, first compound 3 µM) 18.8% | viability, T/C [5] 102% | viability, T/C [6] 121% | viability, T/C [7] 110% | viability, T/C [8] 73.4% | viability, T/C (second compound 0.0316 µM, first compound 0.949 µM) 62.4% | viability, T/C (second compound 0.0316 µM, first compound 3 µM) 14.3% | viability, T/C [9] 97.7% | viability, T/C [10] 95.1% | viability, T/C [11] 98.6% | viability, T/C [12] 84% | viability, T/C (second compound 0.1 µM, first compound 0.949 µM) 47.4% | viability, T/C (second compound 0.1 µM, first compound 3 µM) 17.8% | viability, T/C [13] 102% | viability, T/C [14] 102% | viability, T/C [15] 104% | viability, T/C [16] 87.1% | viability, T/C (second compound 0.316 µM, first compound 0.949 µM) 56.8% | viability, T/C (second compound 0.316 µM, first compound 3 µM) 22.4% | viability, T/C [17] 48% | viability, T/C [18] 62% | viability, T/C [19] 59% | viability, T/C [20] 63.7% | viability, T/C (second compound 1 µM, first compound 0.949 µM) 58.6% | viability, T/C (second compound 1 µM, first compound 3 µM) 20.1%
